# Test results reported in patent US9447093B2, “3,5-diarylazaindoles as DYRK1A protein inhibitors for the treatment of cognitive deficiencies associated with Down's syndrome and with Alzheimer's disease” (Centre National De La Recherche Scientifique, priority 2012, dated 2016).
# Assays:
# [1] = molecular target: T1, DYRK1A protein (Homo sapiens, UniProt Q13627); assay: DYRK1A activity assay (fluorescein peptide substrate, UFLC with fluorescence detection); type: biochemical; conditions: for IC50: DYRK1A protein, ΔDYRK1A enzyme, 37° C.
# T1 construct: the peptide phosphorylated by His-DYRK1A-ΔC is separated from the unphosphorylated peptide; His (N)
# [2] = tested on: CAMKII protein; assay: In vivo phosphorylation state of CAMKII in brain (slot-blot); conditions: brain of TG animals (trisomy model for DYRK1A gene), intraperitoneal 1 mg/kg at t0 and t16 h, sacrifice t17-t18
# Procedure: (§1) To test in vivo the efficacy of these inhibitors, the effect of the compounds according to the invention on the phosphorylation state of two DYRK1A downstream targets in signaling pathways was measured: GSKIII beta protein (FIG. 1a) and CAMKII protein (FIG. 1b).
# (§2) These measurements were carried out in the brain of control animals (WT) and of animals of an animal model of trisomy for DYRK1A gene (TG).
# (§3) To that end, the compounds were administered by intraperitoneal injection in the amount of 1 mg/kg at t0 then at t16 (hours) and the animals were sacrificed at t17-t18. Brain proteins were then extracted and the amounts of GSKIIIbeta, pGSKIIIbeta, CAMKII and pCAMKII proteins were measured by a slot-blot technique with suitable antibodies.
# (§4) The results of these tests are presented in FIG. 1: the y-axis represents the ratio of phosphorylated protein to unphosphorylated protein measured on the untreated animals (WT and TG) and on the animals treated with the compounds according to the invention.
# [3] = tested on: GSKIII beta protein; assay: In vivo phosphorylation state of GSKIII beta in brain (slot-blot); conditions: brain of TG animals (trisomy model for DYRK1A gene), intraperitoneal 1 mg/kg at t0 and t16 h, sacrifice t17-t18
# Procedure: as §1, §2, §3, §4
IC50 [1] [nM],Compound,correction of hypophosphorylated CAMKII (pCAMKII/CAMKII ratio) [2],correction of hyperphosphorylated GSKIIIbeta (pGSK/GSK ratio) [3],"IC50 values for known DYRK1A inhibitors ([1]; validation of the test, compared with literature radioactive kinase tests)"
326,"Oc1ccc(-c2cnc3[nH]cc(-c4ccccc4)c3c2)cc1 [C, 3-phenyl-5-(4-hydroxyphenyl)-1H-pyrrolo[2,3-b]pyridine]",do not produce a sufficient correction,excessive correction,
3590,"Oc1ccccc1-c1cnc2[nH]cc(-c3ccccc3)c2c1 [Compound A, 3-phenyl-5-(2-hydroxyphenyl)-1H-pyrrolo[2,3-b]pyridine]",,,
160,"Oc1ccc(-c2cnc3[nH]cc(-c4ccccc4)c3c2)cc1O [E, 3-phenyl-5-(3,4-dihydroxyphenyl)-1H-pyrrolo[2,3-b]pyridine]",,,
154,"Oc1ccc(-c2cnc3[nH]cc(-c4ccccc4)c3c2)c(O)c1 [F, 3-phenyl-5-(2,4-dihydroxyphenyl)-1H-pyrrolo[2,3-b]pyridine]",,,
11.7,"Oc1ccc(-c2c[nH]c3ncc(-c4ccc(O)cc4O)cc23)cc1 [I′a, 3-(4-hydroxyphenyl)-5-(2,4-dihydroxyphenyl)-1H-pyrrolo[2,3-b]pyridine]",return the phosphorylation level to the value observed in the control animals,effective correction,
14.3,"Oc1ccc(-c2cnc3[nH]cc(-c4ccc(O)c(O)c4)c3c2)c(O)c1 [I′d, 3-(3,4-dihydroxyphenyl)-5-(2,4-dihydroxyphenyl)-1H-pyrrolo[2,3-b]pyridine]",,,

# Further lines, the compound ahead of its results:
Compound,IC50 [1] [nM],correction of hypophosphorylated CAMKII (pCAMKII/CAMKII ratio) [2],correction of hyperphosphorylated GSKIIIbeta (pGSK/GSK ratio) [3],"IC50 values for known DYRK1A inhibitors ([1]; validation of the test, compared with literature radioactive kinase tests)"
"c1ccc(-c2cnc3[nH]cc(-c4ccccc4)c3c2)cc1 [B, 3-phenyl-5-phenyl-1H-pyrrolo[2,3-b]pyridine]",7490,,,
"Oc1cccc(-c2cnc3[nH]cc(-c4cccc(O)c4)c3c2)c1 [Ia, 3-(3-hydroxyphenyl)-5-(3-hydroxyphenyl)-1H-pyrrolo[2,3-b]pyridine]",105,,,
"Oc1ccc(-c2cnc3[nH]cc(-c4ccc(O)cc4)c3c2)cc1 [Ib, 3-(4-hydroxyphenyl)-5-(4-hydroxyphenyl)-1H-pyrrolo[2,3-b]pyridine]",23.1,return the phosphorylation level to the value observed in the control animals,effective correction,
"COc1ccc(-c2c[nH]c3ncc(-c4ccc(O)cc4)cc23)cc1F [Ic, 3-(3-fluoro-4-methoxyphenyl)-5-(4-hydroxyphenyl)-1H-pyrrolo[2,3-b]pyridine]",41.5,,,
"Oc1ccc(-c2c[nH]c3ncc(-c4ccc(O)c(O)c4)cc23)cc1 [I′b, 3-(4-hydroxyphenyl)-5-(3,4-dihydroxyphenyl)-1H-pyrrolo[2,3-b]pyridine]",3,,,
"Oc1ccc(-c2cnc3[nH]cc(-c4ccc(O)c(O)c4)c3c2)cc1O [I′c, 3-(3,4-dihydroxyphenyl)-5-(3,4-dihydroxyphenyl)-1H-pyrrolo[2,3-b]pyridine]",12.4,do not produce a sufficient correction,excessive correction,
"Oc1ccc(O)c(-c2cnc3[nH]cc(-c4ccc(O)c(O)c4)c3c2)c1 [I′e, 3-(3,4-dihydroxyphenyl)-5-(2,5-dihydroxyphenyl)-1H-pyrrolo[2,3-b]pyridine]",39.1,,,
"Oc1ccc(-c2cnc3[nH]cc(-c4ccc(O)c(F)c4)c3c2)cc1 [I′h, 3-(3-fluoro-4-hydroxyphenyl)-5-(4-hydroxyphenyl)-1H-pyrrolo[2,3-b]pyridine]",9.3,,,
epigallocatechin-3-gallate [reference compound],,,,Values similar to those of the literature
